Reference: patent US12318359B2, “Combination methods and compositions including sleep therapeutics for treating mood” (priority 2012, dated 2025)

Test system: depression
Assay: Beck Depression Inventory II score, case study of a depressed patient
Format: in vivo, human
Conditions: person; after three months of fluoxetine monotherapy (20 mg daily raised to 60 mg daily); score at first visit 28
From the text: “Depression symptoms rating scale” refers to any one of a number of standardized questionnaires, clinical instruments, or symptom inventories utilized to measure symptoms and symptom severity in depression. Such rating scales are often used in clinical studies to define treatment outcomes, based on changes from the study's entry point(s) to endpoint(s). Such depression symptoms rating scales include, but are not limited to, The Quick Inventory of Depressive-Symptomatology Self-Report (QIDS-SR16), the 17-Item Hamilton Rating Scale of Depression (HRSD17), the 30-Item Inventory of Depressive Symptomatology (IDS-C30), or The Montgomery-Asperg Depression Rating Scale (MADRS) and […] Depression Inventory II. Such ratings scales may involve patient self-report or be clinician rated. A 50% or greater reduction in a depression ratings scale score over the course of a clinical trial (starting point to endpoint) is typically considered a favorable response for most depression symptoms rating scales. “Remission” in clinical studies of depression often refers to achieving at, or below, a particular numerical rating score on a depression symptoms rating scale, i.e., less than or equal to 7 on the HRSD17; or less than or equal to 5 on the QIDS-SR16; or less than or equal to 10 on the MADRS or less than or equal to 9 on the Beck Depression Inventory II. […]

CNCCC(Oc1ccc(C(F)(F)F)cc1)c1ccccc1 (stereo not shown) [fluoxetine]
Beck Depression Inventory II score: 26
